In patent publication US20100256207A1, “AMORPHOUS OLMESARTAN MEDOXOMIL” (priority 2007, published 2010):
“Also recorded” adds a separate entry of the source.

Columns and labels:
[1] = cited from earlier work
[2] = type: physicochemical
Method: The powder obtained by the process according to the invention as described above and in the following examples was also subjected to Differential Scanning Calorimetry (DSC). It will be apparent to one skilled in the art that the exothermic event at 100-140° C. is a heating-induced recrystallisation of the amorphous form to the crystalline prior art form. This is confirmed by XRPD data and confirms that the chemical entity of the initial amorphous material does represent olmesartan medoxomil. Further, it also confirms that the amorphous olmesartan medoxomil according to the above described embodiments of the invention is sufficiently kinetically stable or metastable, as no conversion to other polymorphic forms occurs below 100° C.
The DSC thermal analysis data was obtained using a Mettler-Toledo DSC821e apparatus under the following parameters:
(§1) Temperature profile: 25-300° C.@5° C./min
(§2) Nitrogen purge gas, 50 ml/min
(§3) Aluminium pan, […], pierced prior to scan

[3] = Thermo-Gravimetric Analysis (TGA): water content / hygroscopicity; type: physicochemical
Method: The powder obtained by the process according to the invention as described above and in the following examples was also subjected to Thermo-Gravimetric Analysis (TGA).
The water content was determined by weight loss in the TGA data at 25-105° C.
The TGA analysis data was obtained using a Mettler-Toledo TGA851e apparatus under the following parameters:
as §1, §2, §3

In the case of `CCCc1nc(C(C)(C)O)c(C(=O)OCc2oc(=O)oc2C)n1Cc1ccc(-c2ccccc2-c2nnn[nH]2)cc1` [Olmesartan medoxomil, 2,3-dihydroxy-2-butenyl 4-(1-hydroxy-1-methylethyl)-2-propyl-1-[p-(o-tetrazol-5-yl-phenyl)benzyl]imidazole-5-carboxylate cyclic 2,3-carbonate], the aqueous solubility [1] is given as “very low”.
For `CCCc1nc(C(C)(C)O)c(C(=O)OCc2oc(=O)oc2C)n1Cc1ccc(-c2ccccc2-c2nnn[nH]2)cc1` [amorphous olmesartan medoxomil, 2,3-dihydroxy-2-butenyl 4-(1-hydroxy-1-methylethyl)-2-propyl-1-[p-(o-tetrazol-5-yl-phenyl)benzyl]imidazole-5-carboxylate cyclic 2,3-carbonate], the “kinetic stability: temperature below which no conversion to other polymorphic forms occurs” value [2] was at least 100 °C, the “exothermic event: heating-induced recrystallisation of the amorphous form to the crystalline prior art form” value ([2]; DSC, 25-300° C. at 5° C./min, nitrogen purge, confirmed by XRPD) was 100-140 °C and the hygroscopicity [3] was “surprisingly low hygroscopicity; also recorded: substantially non-hygroscopic”. The water content ([3]; weight loss in the TGA data at 25-105° C.) was “less than 2 % by weight”.
